Measured values: patent US20220135567A1, “TYK2 PSEUDOKINASE LIGANDS” (Ventyx Biosciences, Inc., priority 2019, published 2022)

Test system: IFN-a/Jak1Tyk2
Experiment: Co-stimulation assay in lysed whole blood: IFNa (JAK1/TYK2) stimulated STAT1 phosphorylation
Type: cell-based
Conditions: 20 min, lysed human whole blood, IFNa 100 ng/mL + GM-CSF 10 ng/mL, pSTAT1 by flow cytometry
Outline: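 Red-cell-lysed human whole blood, pretreated with compound for 1 h at 37°C, was stimulated 20 min at 37°C with IFNa (100 ng/mL final) plus GM-CSF (10 ng/mL final). Cells were then fixed/lysed, permeabilised in Perm Buffer III and stained overnight for pSTAT1 (PE) and pSTAT5. Read-out by flow cytometry.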

SMILES	IC50 [nM]
CNc1cc(Nc2cccn(-c3cccc(C)n3)c2=O)nc2c(C(=O)NC3CC(C#N)C3)cnn12 (stereo not drawn) [Compound 99, N-(3-cyanocyclobutyl)-5-((6′-methyl-2-oxo-2H-[1,2′-bipyridin]-3-yl)amino)-7-(methylamino)pyrazolo[1,5-a]pyrimidine-3-carboxamide]	1000 to 10000
CNc1cc(Nc2cccn(-c3cccc(C)n3)c2=O)nc2c(C(=O)NC3CC(O)C3)cnn12 (stereo not drawn) [Compound 100, N-(3-hydroxycyclobutyl)-5-((6′-methyl-2-oxo-2H-[1,2′-bipyridin]-3-yl)amino)-7-(methylamino)pyrazolo[1,5-a]pyrimidine-3-carboxamide]	1000 to 10000
CNc1cc(Nc2cccn(-c3ccc(OC)nn3)c2=O)nc2c(C(=O)NCC(C)(C)O)cnn12 [Compound 103, N-(2-hydroxy-2-methylpropyl)-5-((1-(6-methoxypyridazin-3-yl)-2-oxo-1,2-dihydropyridin-3-yl)amino)-7-(methylamino)pyrazolo[1,5-a]pyrimidine-3-carboxamide]	1000 to 10000
CNc1cc(Nc2cccn(-c3ccc(OC)nn3)c2=O)nc2c(C(=O)NC3CC(O)C3)cnn12 (stereo not drawn) [Compound 104, N-(3-hydroxycyclobutyl)-5-((1-(6-methoxypyridazin-3-yl)-2-oxo-1,2-dihydropyridin-3-yl)amino)-7-(methylamino)pyrazolo[1,5-a]pyrimidine-3-carboxamide]	100 to 1000
CNc1cc(Nc2cccn(-c3ccc(OC)nn3)c2=O)nc2c(C(=O)NCC(C)(O)CO)cnn12 (stereo not drawn) [Compound 105, N-(2,3-dihydroxy-2-methylpropyl)-5-((1-(6-methoxypyridazin-3-yl)-2-oxo-1,2-dihydropyridin-3-yl)amino)-7-(methylamino)pyrazolo[1,5-a]pyrimidine-3-carboxamide]	> 3000
CNc1cc(Nc2cccn(-c3ccc(OC)nn3)c2=O)nc2c(C(=O)NC3CCOC3)cnn12 (stereo not drawn) [Compound 106, 5-((1-(6-methoxypyridazin-3-yl)-2-oxo-1,2-dihydropyridin-3-yl)amino)-7-(methylamino)-N-(tetrahydrofuran-3-yl)pyrazolo[1,5-a]pyrimidine-3-carboxamide]	100 to 1000
CNc1cc(Nc2cc(F)cc3c2OCCO3)nc2c(C(=O)NCC(C)(C)CO)cnn12 [Compound 109, 5-((7-fluoro-2,3-dihydrobenzo[b][1,4]dioxin-5-yl)amino)-N-(3-hydroxy-2,2-dimethylpropyl)-7-(methylamino)pyrazolo[1,5-a]pyrimidine-3-carboxamide]	< 100
CNc1cc(Nc2cccn(-c3ccnc(C)n3)c2=O)nc2c(C(=O)NC3CCC3)cnn12 [Compound 110, N-cyclobutyl-7-(methylamino)-5-((1-(2-methylpyrimidin-4-yl)-2-oxo-1,2-dihydropyridin-3-yl)amino)pyrazolo[1,5-a]pyrimidine-3-carboxamide]	< 100
CNc1cc(Nc2cccn(-c3cccc(C)n3)c2=O)nc2c(C(=O)N[C@H]3C[C@H]3F)cnn12 [Compound 111, N-((1S,2R)-2-fluorocyclopropyl)-5-((6′-methyl-2-oxo-2H-[1,2′-bipyridin]-3-yl)amino)-7-(methylamino)pyrazolo[1,5-a]pyrimidine-3-carboxamide]	< 100
CNc1cc(Nc2cccn(-c3cccc(C)n3)c2=O)nc2c(C(=O)NC3CCC3)cnn12 [Compound 112, N-cyclobutyl-5-((6′-methyl-2-oxo-2H-[1,2′-bipyridin]-3-yl)amino)-7-(methylamino)pyrazolo[1,5-a]pyrimidine-3-carboxamide]	< 100
CNc1cc(Nc2cccn(C)c2=O)nc2c(C(=O)NC3CCC3)cnn12 [Compound 113, N-cyclobutyl-5-((1-methyl-2-oxo-1,2-dihydropyridin-3-yl)amino)-7-(methylamino)pyrazolo[1,5-a]pyrimidine-3-carboxamide]	< 100
CNc1cc(Nc2cccn(-c3ccccn3)c2=O)nc2c(C(=O)NC3CCC3)cnn12 [Compound 114, N-cyclobutyl-7-(methylamino)-5-((2-oxo-2H-[1,2′-bipyridin]-3-yl)amino)pyrazolo[1,5-a]pyrimidine-3-carboxamide]	< 100
CNc1cc(Nc2cccn(-c3ccccn3)c2=O)nc2c(C(=O)N[C@H]3C[C@H]3F)cnn12 [Compound 115, N-((1S,2R)-2-fluorocyclopropyl)-7-(methylamino)-5-((2-oxo-2H-[1,2′-bipyridin]-3-yl)amino)pyrazolo[1,5-a]pyrimidine-3-carboxamide]	< 100
CNc1cc(Nc2cnn(C3CCNC3=O)c2)nc2c(C(=O)NC3CC3)cnn12 (stereo not drawn) [Compound 116, N-cyclopropyl-7-(methylamino)-5-((1-(2-oxopyrrolidin-3-yl)-1H-pyrazol-4-yl)amino)pyrazolo[1,5-a]pyrimidine-3-carboxamide]	1000 to 10000

The next lines start with the values.

IC50 [nM]	SMILES
< 100	[2H]C([2H])([2H])n1cccc(Nc2cc(NC)n3ncc(C(=O)NC4CCC4)c3n2)c1=O [Compound 93, N-cyclobutyl-5-((1-(methyl-d3)-2-oxo-1,2-dihydropyridin-3-yl)amino)-7-(methylamino)pyrazolo[1,5-a]pyrimidine-3-carboxamide]
< 100	[2H]C([2H])([2H])Nc1cc(Nc2cccn(C)c2=O)nc2c(C(=O)NC3CCC3)cnn12 [Compound 94, N-cyclobutyl-5-((1-methyl-2-oxo-1,2-dihydropyridin-3-yl)amino)-7-((methyl-d3)amino)pyrazolo[1,5-a]pyrimidine-3-carboxamide]
< 100	CNc1cc(Nc2cccc3c2OCCO3)nc2c(C(=O)NC3(C#N)CC3)cnn12 [Compound 95, N-(1-cyanocyclopropyl)-5-((2,3-dihydrobenzo[b][1,4]dioxin-5-yl)amino)-7-(methylamino)pyrazolo[1,5-a]pyrimidine-3-carboxamide]
< 100	CNc1cc(Nc2cccc3c2OCCO3)nc2c(C(=O)NC3CCC3)cnn12 [Compound 96, N-cyclobutyl-5-((2,3-dihydrobenzo[b][1,4]dioxin-5-yl)amino)-7-(methylamino)pyrazolo[1,5-a]pyrimidine-3-carboxamide]
< 100	CNc1cc(Nc2cccc3c2OCCO3)nc2c(C(=O)NC3C[C@@H]3F)cnn12 (stereo partly drawn) [Compound 97, 5-((2,3-dihydrobenzo[b][1,4]dioxin-5-yl)amino)-N-((2S)-2-fluorocyclopropyl)-7-(methylamino)pyrazolo[1,5-a]pyrimidine-3-carboxamide]
< 100	[2H]C([2H])([2H])Nc1cc(Nc2cc(F)cc3c2OCCO3)nc2c(C(=O)NCC(C)(C)CO)cnn12 [Compound 98, 5-((7-fluoro-2,3-dihydrobenzo[b][1,4]dioxin-5-yl)amino)-N-(3-hydroxy-2,2-dimethylpropyl)-7-((methyl-d3)amino)pyrazolo[1,5-a]pyrimidine-3-carboxamide]
< 100	CNc1cc(Nc2cccn(-c3ccc(OC)nn3)c2=O)nc2c(C(=O)N[C@@H]3C[C@@H]3F)cnn12 [Compound 101, N-((1R,2S)-2-fluorocyclopropyl)-5-((1-(6-methoxypyridazin-3-yl)-2-oxo-1,2-dihydropyridin-3-yl)amino)-7-(methylamino)pyrazolo[1,5-a]pyrimidine-3-carboxamide]
< 100	CNc1cc(Nc2cccc3c2OCCO3)nc2c(C(=O)NC3CC(O)C3)cnn12 (stereo not drawn) [Compound 102, 5-((2,3-dihydrobenzo[b][1,4]dioxin-5-yl)amino)-N-(3-hydroxycyclobutyl)-7-(methylamino)pyrazolo[1,5-a]pyrimidine-3-carboxamide]
< 100	CNc1cc(Nc2cccn(C)c2=O)nc2c(C(=O)N[C@H]3C[C@H]3F)cnn12 [Compound 107, N-((1S,2R)-2-fluorocyclopropyl)-5-((1-methyl-2-oxo-1,2-dihydropyridin-3-yl)amino)-7-(methylamino)pyrazolo[1,5-a]pyrimidine-3-carboxamide]
< 100	CCOc1ccc(-n2cccc(Nc3cc(NC)n4ncc(C(=O)NC5CCC5)c4n3)c2=O)nn1 [Compound 108, N-cyclobutyl-5-((1-(6-ethoxypyridazin-3-yl)-2-oxo-1,2-dihydropyridin-3-yl)amino)-7-(methylamino)pyrazolo[1,5-a]pyrimidine-3-carboxamide]
